≈ marks a conversion by molar mass, not a printed value. Each block holds one compound with its values, some of them ahead of it. Calls of active or inactive are those of the source. The rule behind the calls is not given here.
Tests used:
[1] = Half life in ICR mouse at 10 mg/kg, iv; type: ADME, organism-based; design: dose 10 mg/kg, route intravenous; conditions: in vivo
[2] = molecular target: Histone deacetylase 1 (Homo sapiens, UniProt Q13547)
Description: Inhibition of HDAC1 (unknown origin) using RHKK(Ac)AMC as substrate

[3] = molecular target: T1, Protein deacetylase HDAC6 (Homo sapiens, UniProt Q9UBN7)
T1 sequence (Q9UBN7 whole entry): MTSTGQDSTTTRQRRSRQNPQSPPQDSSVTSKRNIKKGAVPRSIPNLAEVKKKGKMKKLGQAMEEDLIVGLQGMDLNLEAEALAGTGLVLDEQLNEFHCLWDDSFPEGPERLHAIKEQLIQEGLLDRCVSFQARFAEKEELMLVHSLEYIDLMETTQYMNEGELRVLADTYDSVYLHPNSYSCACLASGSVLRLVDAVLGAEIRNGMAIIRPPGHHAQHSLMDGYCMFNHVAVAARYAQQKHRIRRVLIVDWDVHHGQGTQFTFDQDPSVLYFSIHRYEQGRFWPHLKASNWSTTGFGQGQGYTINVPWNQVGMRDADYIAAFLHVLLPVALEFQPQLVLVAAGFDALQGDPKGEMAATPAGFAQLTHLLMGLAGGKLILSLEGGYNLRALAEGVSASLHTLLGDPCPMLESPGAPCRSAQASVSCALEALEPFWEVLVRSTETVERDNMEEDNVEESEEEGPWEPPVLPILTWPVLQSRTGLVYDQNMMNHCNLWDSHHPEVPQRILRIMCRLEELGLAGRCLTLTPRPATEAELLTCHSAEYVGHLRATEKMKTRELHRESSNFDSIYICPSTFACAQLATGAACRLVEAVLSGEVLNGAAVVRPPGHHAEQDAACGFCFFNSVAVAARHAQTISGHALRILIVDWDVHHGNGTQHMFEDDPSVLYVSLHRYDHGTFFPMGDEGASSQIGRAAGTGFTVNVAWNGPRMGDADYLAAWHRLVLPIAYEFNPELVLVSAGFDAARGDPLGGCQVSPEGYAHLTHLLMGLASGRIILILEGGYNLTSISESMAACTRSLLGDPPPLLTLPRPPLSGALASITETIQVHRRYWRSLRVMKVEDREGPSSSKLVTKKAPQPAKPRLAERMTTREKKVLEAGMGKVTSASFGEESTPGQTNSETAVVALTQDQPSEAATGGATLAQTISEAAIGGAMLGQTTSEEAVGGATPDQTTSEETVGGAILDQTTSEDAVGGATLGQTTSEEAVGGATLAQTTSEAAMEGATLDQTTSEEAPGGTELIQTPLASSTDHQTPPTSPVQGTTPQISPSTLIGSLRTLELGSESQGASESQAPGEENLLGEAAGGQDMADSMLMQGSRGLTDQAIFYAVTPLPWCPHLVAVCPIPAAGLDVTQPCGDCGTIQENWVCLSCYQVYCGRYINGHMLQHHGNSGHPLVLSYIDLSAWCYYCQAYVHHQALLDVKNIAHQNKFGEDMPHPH
Description: Inhibition of HDAC6 (unknown origin) using RHKK(Ac)AMC as substrate

[4] = Oral bioavailability in ICR mouse at 100 mg/kg; type: ADME, organism-based; conditions: in vivo
[5] = molecular target: Cytochrome P450 2C19 (Homo sapiens, UniProt P33261); test: Inhibition of CYP2C19 in human liver microsomes preincubated for 10 mins followed by NADPH addition measured after 30 mins by LC-MS/MS analysis; type: ADME
Cytochrome P450 2C19, sequence (P33261 whole entry): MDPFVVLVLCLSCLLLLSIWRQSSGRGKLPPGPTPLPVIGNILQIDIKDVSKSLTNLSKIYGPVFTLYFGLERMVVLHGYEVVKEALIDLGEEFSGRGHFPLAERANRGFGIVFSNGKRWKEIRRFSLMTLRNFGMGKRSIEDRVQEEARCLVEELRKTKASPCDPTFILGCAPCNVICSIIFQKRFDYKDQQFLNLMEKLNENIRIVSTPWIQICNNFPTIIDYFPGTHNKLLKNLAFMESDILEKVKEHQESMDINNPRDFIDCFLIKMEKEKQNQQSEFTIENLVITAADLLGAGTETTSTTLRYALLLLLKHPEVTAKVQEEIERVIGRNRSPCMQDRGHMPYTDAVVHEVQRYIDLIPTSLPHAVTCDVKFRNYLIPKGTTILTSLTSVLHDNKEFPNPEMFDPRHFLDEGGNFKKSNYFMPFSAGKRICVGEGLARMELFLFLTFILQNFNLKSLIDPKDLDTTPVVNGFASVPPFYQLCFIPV

[6] = molecular target: Cytochrome P450 2C9 (Homo sapiens, UniProt P11712); test: Inhibition of CYP2C9 in human liver microsomes preincubated for 10 mins followed by NADPH addition measured after 30 mins by LC-MS/MS analysis; type: ADME
Cytochrome P450 2C9, sequence (P11712 whole entry): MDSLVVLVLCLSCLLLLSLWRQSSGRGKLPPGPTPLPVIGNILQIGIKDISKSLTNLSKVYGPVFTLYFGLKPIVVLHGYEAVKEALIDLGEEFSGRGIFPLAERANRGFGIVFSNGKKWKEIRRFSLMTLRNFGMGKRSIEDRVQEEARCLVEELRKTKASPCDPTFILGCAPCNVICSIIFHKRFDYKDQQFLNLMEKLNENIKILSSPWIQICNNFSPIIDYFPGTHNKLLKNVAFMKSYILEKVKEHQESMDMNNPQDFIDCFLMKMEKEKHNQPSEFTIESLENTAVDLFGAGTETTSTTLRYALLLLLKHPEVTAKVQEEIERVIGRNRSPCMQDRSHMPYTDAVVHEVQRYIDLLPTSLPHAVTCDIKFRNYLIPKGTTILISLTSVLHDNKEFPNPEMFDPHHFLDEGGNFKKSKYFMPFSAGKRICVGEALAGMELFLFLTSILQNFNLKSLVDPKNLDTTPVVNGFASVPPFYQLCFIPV

[7] = molecular target: Cytochrome P450 3A4 (Homo sapiens, UniProt P08684); test: Inhibition of CYP3A4 in human liver microsomes preincubated for 10 mins followed by NADPH addition measured after 30 mins by LC-MS/MS analysis; type: ADME
Cytochrome P450 3A4, sequence (P08684 whole entry): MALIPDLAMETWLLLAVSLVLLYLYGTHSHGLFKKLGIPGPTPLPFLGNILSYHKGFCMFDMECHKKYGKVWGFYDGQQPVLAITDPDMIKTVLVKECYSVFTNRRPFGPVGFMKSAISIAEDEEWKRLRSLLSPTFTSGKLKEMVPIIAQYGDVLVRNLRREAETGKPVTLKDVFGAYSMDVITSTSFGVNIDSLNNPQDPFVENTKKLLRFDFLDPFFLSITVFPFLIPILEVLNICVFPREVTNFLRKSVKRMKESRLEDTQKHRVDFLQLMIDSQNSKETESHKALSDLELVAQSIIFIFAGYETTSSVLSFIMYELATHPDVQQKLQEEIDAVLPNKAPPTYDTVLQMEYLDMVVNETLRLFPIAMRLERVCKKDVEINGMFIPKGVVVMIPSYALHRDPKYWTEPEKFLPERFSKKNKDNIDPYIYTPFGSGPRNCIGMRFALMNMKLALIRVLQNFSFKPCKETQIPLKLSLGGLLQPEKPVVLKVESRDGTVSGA

[8] = Intrinsic clearance in mouse liver microsomes at 1 uM preincubated for 10 mins followed by NADPH addition measured over 30 mins by LC-MS/MS analysis; type: ADME; conditions: read-out: CLH
[9] = Cmax in ICR mouse at 100 mg/kg, po; type: ADME, organism-based; design: dose 100 mg/kg, route oral; conditions: in vivo
[10] = system: Mus musculus; test: AUC (0 to infinity) in ICR mouse at 10 mg/kg, iv; type: ADME, organism-based, Plasma; design: time infinity, dose 10 mg/kg, route intravenous; conditions: in vivo
[11] = molecular target: Cytochrome P450 2D6 (Homo sapiens, UniProt P10635); test: Inhibition of CYP2D6 in human liver microsomes preincubated for 10 mins followed by NADPH addition measured after 30 mins by LC-MS/MS analysis; type: ADME
Cytochrome P450 2D6, sequence (P10635 whole entry): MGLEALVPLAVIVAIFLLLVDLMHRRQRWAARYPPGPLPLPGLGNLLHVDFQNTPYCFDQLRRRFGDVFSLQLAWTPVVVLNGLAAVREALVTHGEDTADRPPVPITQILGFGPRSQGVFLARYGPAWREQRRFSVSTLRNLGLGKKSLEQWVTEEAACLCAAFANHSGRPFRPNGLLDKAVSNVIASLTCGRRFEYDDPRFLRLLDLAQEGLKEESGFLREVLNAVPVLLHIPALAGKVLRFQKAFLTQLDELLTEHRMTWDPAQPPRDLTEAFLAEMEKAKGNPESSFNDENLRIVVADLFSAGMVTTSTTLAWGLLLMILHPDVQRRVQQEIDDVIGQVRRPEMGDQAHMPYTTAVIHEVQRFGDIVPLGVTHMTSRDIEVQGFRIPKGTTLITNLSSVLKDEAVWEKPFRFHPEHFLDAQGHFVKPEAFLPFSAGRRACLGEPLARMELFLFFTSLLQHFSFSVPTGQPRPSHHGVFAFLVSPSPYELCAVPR

[12] = Plasma clearance in ICR mouse; type: ADME, organism-based
[13] = Solubility of the compound in PBS measured after overnight incubation by LYSA assay; type: physicochemical
[14] = Intrinsic clearance in human liver microsomes at 1 uM preincubated for 10 mins followed by NADPH addition measured over 30 mins by LC-MS/MS analysis; type: ADME; conditions: read-out: CLH
[15] = molecular target: T2, Cytochrome P450 1A2 (Homo sapiens, UniProt P05177); test: Inhibition of CYP1A2 in human liver microsomes preincubated for 10 mins followed by NADPH addition measured after 30 mins by LC-MS/MS analysis; type: ADME
T2 sequence (P05177 whole entry): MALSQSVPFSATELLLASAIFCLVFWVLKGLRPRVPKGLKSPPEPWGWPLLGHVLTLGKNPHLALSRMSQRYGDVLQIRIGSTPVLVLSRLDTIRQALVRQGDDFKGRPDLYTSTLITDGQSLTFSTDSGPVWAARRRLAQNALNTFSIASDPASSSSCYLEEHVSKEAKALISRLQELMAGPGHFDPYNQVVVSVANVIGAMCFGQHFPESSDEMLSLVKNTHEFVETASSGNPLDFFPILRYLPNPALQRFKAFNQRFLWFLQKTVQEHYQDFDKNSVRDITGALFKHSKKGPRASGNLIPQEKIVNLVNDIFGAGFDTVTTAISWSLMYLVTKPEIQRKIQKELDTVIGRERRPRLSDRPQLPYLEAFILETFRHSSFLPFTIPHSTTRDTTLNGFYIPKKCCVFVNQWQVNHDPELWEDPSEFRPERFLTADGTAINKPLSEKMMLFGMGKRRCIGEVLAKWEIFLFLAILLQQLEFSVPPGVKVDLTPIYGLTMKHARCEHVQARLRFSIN

[16] = molecular target: T1, Protein deacetylase HDAC6; remark: listed apart in the source
Description: Inhibition of HDAC6 in human A549 cells assessed as induction of tubulin acetylation after 17 to 18 hrs by ELISA

[17] = system: Mus musculus; test: AUC (0 to infinity) in ICR mouse at 100 mg/kg, po; type: ADME, organism-based, Plasma; design: time infinity, dose 100 mg/kg, route oral; conditions: in vivo
[18] = molecular target: T3, Histone deacetylase 8 (Homo sapiens, UniProt Q9BY41)
T3 sequence (Q9BY41 whole entry): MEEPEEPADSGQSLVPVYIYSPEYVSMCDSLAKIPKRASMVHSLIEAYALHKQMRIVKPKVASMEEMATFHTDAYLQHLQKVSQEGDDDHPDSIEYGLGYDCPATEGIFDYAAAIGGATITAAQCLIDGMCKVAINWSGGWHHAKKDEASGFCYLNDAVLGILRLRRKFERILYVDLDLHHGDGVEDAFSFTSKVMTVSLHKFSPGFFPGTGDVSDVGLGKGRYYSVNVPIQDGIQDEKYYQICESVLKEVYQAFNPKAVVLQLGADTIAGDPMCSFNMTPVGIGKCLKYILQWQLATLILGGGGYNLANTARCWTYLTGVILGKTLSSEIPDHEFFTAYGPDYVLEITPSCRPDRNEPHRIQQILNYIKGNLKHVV
Description: Inhibition of HDAC8 (unknown origin) using RHK(Ac)K(Ac)AMC as substrate

[19] = system: Mus musculus; test: AUC (0 to infinity) in ICR mouse at 25 mg/kg, iv; type: ADME, organism-based, Plasma; design: time infinity, dose 25 mg/kg, route intravenous; conditions: in vivo
[20] = system: Mus musculus; test: AUC (0 to infinity) in ICR mouse at 50 mg/kg, po; type: ADME, organism-based, Plasma; design: time infinity, dose 50 mg/kg, route oral; conditions: in vivo
[21] = molecular target: Histone deacetylase 1/2/3/6 (Homo sapiens) (UniProt Q13547+O15379+Q9UBN7+Q92769); conditions: HeLa, at 10 µM
Histone deacetylase 1/2/3/6 (Homo sapiens), sequence (O15379 whole entry, looked up, one chain of several): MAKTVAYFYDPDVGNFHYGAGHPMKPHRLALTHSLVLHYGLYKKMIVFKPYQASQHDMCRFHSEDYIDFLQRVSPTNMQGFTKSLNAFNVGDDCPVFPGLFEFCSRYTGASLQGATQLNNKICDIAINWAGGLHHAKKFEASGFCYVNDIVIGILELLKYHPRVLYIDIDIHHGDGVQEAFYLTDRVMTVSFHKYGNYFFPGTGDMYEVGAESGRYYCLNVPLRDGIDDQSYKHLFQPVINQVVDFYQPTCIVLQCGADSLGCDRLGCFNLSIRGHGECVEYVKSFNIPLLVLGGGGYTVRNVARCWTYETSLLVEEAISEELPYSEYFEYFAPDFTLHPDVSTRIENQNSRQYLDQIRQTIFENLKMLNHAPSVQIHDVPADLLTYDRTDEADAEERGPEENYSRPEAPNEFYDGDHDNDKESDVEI
Histone deacetylase 1/2/3/6 (Homo sapiens), sequence (Q13547 whole entry, looked up, one chain of several): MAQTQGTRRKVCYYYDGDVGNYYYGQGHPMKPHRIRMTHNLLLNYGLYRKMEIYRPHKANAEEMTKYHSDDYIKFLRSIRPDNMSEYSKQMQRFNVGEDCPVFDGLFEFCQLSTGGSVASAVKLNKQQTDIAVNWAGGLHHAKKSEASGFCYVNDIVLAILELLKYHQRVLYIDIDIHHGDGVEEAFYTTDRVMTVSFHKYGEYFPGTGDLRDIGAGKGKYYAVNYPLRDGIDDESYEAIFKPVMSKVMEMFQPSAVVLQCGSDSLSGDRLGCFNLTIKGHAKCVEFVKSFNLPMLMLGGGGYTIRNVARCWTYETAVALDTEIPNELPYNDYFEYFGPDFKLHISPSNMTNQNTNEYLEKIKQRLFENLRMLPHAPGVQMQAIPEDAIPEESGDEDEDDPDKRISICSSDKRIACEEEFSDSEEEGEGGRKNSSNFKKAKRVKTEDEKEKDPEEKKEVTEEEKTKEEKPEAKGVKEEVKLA
Histone deacetylase 1/2/3/6 (Homo sapiens), sequence (Q92769 whole entry, looked up, one chain of several): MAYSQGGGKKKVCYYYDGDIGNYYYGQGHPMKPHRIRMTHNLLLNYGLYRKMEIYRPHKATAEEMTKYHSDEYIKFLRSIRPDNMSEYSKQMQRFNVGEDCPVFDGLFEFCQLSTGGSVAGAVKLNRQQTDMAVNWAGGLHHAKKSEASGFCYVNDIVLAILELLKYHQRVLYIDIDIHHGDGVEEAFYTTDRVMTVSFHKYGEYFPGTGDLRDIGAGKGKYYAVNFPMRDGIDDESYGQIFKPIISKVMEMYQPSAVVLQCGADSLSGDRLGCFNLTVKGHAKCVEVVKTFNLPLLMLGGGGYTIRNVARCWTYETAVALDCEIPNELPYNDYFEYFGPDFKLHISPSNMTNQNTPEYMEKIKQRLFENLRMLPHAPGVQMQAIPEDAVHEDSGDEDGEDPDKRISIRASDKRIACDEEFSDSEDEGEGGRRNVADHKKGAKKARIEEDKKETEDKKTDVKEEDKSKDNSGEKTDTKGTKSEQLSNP
Description: Inhibition of HDAC1/HDAC2/HDAC3 in human HeLa cells assessed as induction of p21 gene expression at 10 uM after 15 hrs by luciferase reporter gene assay relative to HDAC1 inhibitor SNDX-275

[22] = Half life in ICR mouse at 25 mg/kg, iv; type: ADME, organism-based; design: dose 25 mg/kg, route intravenous; conditions: in vivo
[23] = Oral bioavailability in ICR mouse at 50 mg/kg; type: ADME, organism-based; conditions: in vivo
[24] = Cmax in ICR mouse at 50 mg/kg, po; type: ADME, organism-based; design: dose 50 mg/kg, route oral; conditions: in vivo

Histone deacetylase 1, sequence (Q13547 whole entry): as the sequence (Q13547 whole entry, looked up, one chain of several) above

half-life [1]: 2.1 h | IC50 [2]: 74100 nM | IC50 [3]: 17 nM | bioavailability [4]: 55% | IC50 [5]: > 50000 nM | IC50 [6]: > 50000 nM | IC50 [7]: > 50000 nM | CLint scaled at 1 µM [8]: 38 mL/min/kg | Cmax [9]: 626 ng/mL | AUC [10]: 1900 µg/L/h | IC50 [11]: > 50000 nM | clearance [12]: 87 mL/min/kg | solubility [13]: 22 µg/mL (≈ 61.1 µM) | CLint scaled at 1 µM [14]: 3 mL/min/kg | IC50 [15]: > 50000 nM | EC50 [16]: 300 nM | AUC [17]: 10500 µg/L/h | IC50 [18]: 180 nM
Structure (SMILES): C[C@]1(Nc2ccc(C(=O)NO)cc2)CCN(c2ccc(Cl)cc2)C1=O

IC50 [2]: 19500 nM | IC50 [3]: 380 nM | AUC [19]: 3850 µg/L/h | AUC [20]: 125 µg/L/h | inhibition [21]: inactive | CLint scaled at 1 µM [8]: 26 mL/min/kg | half-life [22]: 0.7 h | clearance [12]: 108 mL/min/kg | solubility [13]: 33 µg/mL (≈ 106 µM) | bioavailability [23]: ≤ 1% | CLint scaled at 1 µM [14]: 4.6 mL/min/kg | Cmax [24]: 34 ng/mL | IC50 [18]: 210 nM
Structure (SMILES): O=C(NO)c1ccc(NC2CCN(c3ccccc3)C2=O)cc1 (stereo unspecified)
